± gives the expanded uncertainty stated by the source.
Legend:
[1] = Molar enthalpy of transition or fusion; conditions: Crystal; DSC
[2] = Crystal; DTA

In the case of `CCOc1cc(C=O)ccc1O` [3-ethoxy-4-hydroxybenzaldehyde], the “Molar enthalpy of transition or fusion” value [1] is reported as 5.64 ± 1.24 kcal/mol and the Normal melting temperature [2] is reported as 78 ± 1.1 °C.

Source: the NIST ThermoML archive (doi:10.1021/acs.jced.6b00972)
